Patent US9108944B2, “Androgen receptor modulators and uses thereof” (ARAGON PHARMACEUTICALS, INC., priority 2010, dated 2015)
pIC50: −log10 of the molar value.

How the values were obtained:
AR-VP16 [1] = biological target: T1, AR-VP16 (Homo sapiens, UniProt P10275); assay: AR-VP16 DNA Binding Assay, antagonist mode (HepG2 cells, 0.1 nM R1881); type: cell-based
T1 sequence (P10275 560-920 limits assumed): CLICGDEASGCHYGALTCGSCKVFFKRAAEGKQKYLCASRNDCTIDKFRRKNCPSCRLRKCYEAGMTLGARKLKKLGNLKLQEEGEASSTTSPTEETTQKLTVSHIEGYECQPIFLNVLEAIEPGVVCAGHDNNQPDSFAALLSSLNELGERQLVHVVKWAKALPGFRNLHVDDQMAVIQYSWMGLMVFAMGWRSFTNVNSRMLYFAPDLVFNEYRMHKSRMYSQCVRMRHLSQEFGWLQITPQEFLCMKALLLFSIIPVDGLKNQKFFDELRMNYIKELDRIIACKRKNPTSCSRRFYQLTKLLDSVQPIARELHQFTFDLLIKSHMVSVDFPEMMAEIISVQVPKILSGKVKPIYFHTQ
How it was run: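 Transfected HepG2 cells expressing AR-VP16 received serially diluted compound in charcoal-stripped-serum RPMI the day after transfection, with 0.1 nM R1881 (final) added only for antagonist testing. After 48 h, cells were lysed for measurement.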

AR-VP16 [2] = biological target: T1, AR-VP16; assay: AR-VP16 DNA Binding Assay, agonist mode (HepG2 cells); type: cell-based; settings: Emax >20x DMSO control = agonist

Structure (SMILES) | pIC50 (AR-VP16 [1]) | ARVP16 DNA Binding Assay (Agonist mode): Agonist? (AR-VP16 [2])
N#Cc1ncc(N2C(=O)C3(CCC3)N(c3ccccc3-c3ccccc3)C2=S)cc1C(F)(F)F [Compound 15, 5-(5-([1,1′-Biphenyl]-2-yl)-8-oxo-6-thioxo-5,7-diazaspiro[3.4]octan-7-yl)-3-(trifluoromethyl)picolinonitrile] | < 6.00 | No (Agonist defined as a compound whose Emax in the ARVP16 DNA Binding Assay (Agonist mode) is >20x DMSO control)
CCOC(=O)CCCNC(=O)c1ccc(N2C(=S)N(c3cnc(C#N)c(C(F)(F)F)c3)C(=O)C23CCC3)cc1F [Compound 247, Ethyl 4-(4-(7-(6-cyano-5-(trifluoromethyl)pyridin-3-yl)-8-oxo-6-thioxo-5,7-diazaspiro[3.4]octan-5-yl)-2-fluorobenzamido)butanoate] | < 6.00 | No (Agonist defined as a compound whose Emax in the ARVP16 DNA Binding Assay (Agonist mode) is >20x DMSO control)
N#Cc1ncc(N2C(=O)C3(CCC3)N(c3ccc(C4CCOCC4)cc3)C2=S)cc1C(F)(F)F [Compound 115, 5-(8-Oxo-5-(4-(tetrahydro-2H-pyran-4-yl)phenyl)-6-thioxo-5,7-diazaspiro[3.4]octan-7-yl)-3-(trifluoromethyl)picolinonitrile] | > 6.00 | No (Agonist defined as a compound whose Emax in the ARVP16 DNA Binding Assay (Agonist mode) is >20x DMSO control)
N#Cc1ncc(N2C(=O)C3(CCC3)N(c3c(F)cccc3F)C2=S)cc1C(F)(F)F [Compound 73, 5-(5-(2,6-Difluorophenyl)-8-oxo-6-thioxo-5,7-diazaspiro[3.4]octan-7-yl)-3-(trifluoromethyl)picolinonitrile] | > 6.00 | Yes (Agonist defined as a compound whose Emax in the ARVP16 DNA Binding Assay (Agonist mode) is >20x DMSO control)
COCCCCOc1ccc(N2C(=S)N(c3cnc(C#N)c(C(F)(F)F)c3)C(=O)C23CCC3)cc1F [Compound 133, 5-(5-(3-Fluoro-4-(4-methoxybutoxy)phenyl)-8-oxo-6-thioxo-5,7-diazaspiro[3.4]octan-7-yl)-3-(trifluoromethyl)picolinonitrile] | > 6.00 | No (Agonist defined as a compound whose Emax in the ARVP16 DNA Binding Assay (Agonist mode) is >20x DMSO control)
N#Cc1ncc(N2C(=O)C3(CCC3)N(c3ccc(C(=O)NCCc4cccnc4)c(F)c3)C2=S)cc1C(F)(F)F [Compound 244, 4-(7-(6-Cyano-5-(trifluoromethyl)pyridin-3-yl)-8-oxo-6-thioxo-5,7-diazaspiro[3.4]octan-5-yl)-2-fluoro-N-(2-(pyridin-3-yl)ethyl)benzamide] | > 6.00 | No (Agonist defined as a compound whose Emax in the ARVP16 DNA Binding Assay (Agonist mode) is >20x DMSO control)
N#Cc1ncc(N2C(=O)C3(CCC3)N(c3ccc4cn[nH]c4c3)C2=S)cc1C(F)(F)F [Compound 88, 5-(5-(1H-Indazol-6-yl)-8-oxo-6-thioxo-5,7-diazaspiro[3.4]octan-7-yl)-3-(trifluoromethyl)picolinonitrile] | > 6.00 | No (Agonist defined as a compound whose Emax in the ARVP16 DNA Binding Assay (Agonist mode) is >20x DMSO control)
CNC(=O)c1ccc(N2C(=S)N(c3cnc(C#N)c(C)c3)C(=O)C23CCC3)cc1OC [Compound 107, 4-(7-(6-Cyano-5-methylpyridin-3-yl)-8-oxo-6-thioxo-5,7-diazaspiro[3.4]octan-5-yl)-2-methoxy-N-methylbenzamide] | > 6.00 | No (Agonist defined as a compound whose Emax in the ARVP16 DNA Binding Assay (Agonist mode) is >20x DMSO control)
N#Cc1ncc(N2C(=O)C3(CCC3)N(c3ccc(OCCc4ncccn4)c(F)c3)C2=S)cc1C(F)(F)F [Compound 189, 5-(5-(3-Fluoro-4-(2-(pyrimidin-2-yl)ethoxy)phenyl)-8-oxo-6-thioxo-5,7-diazaspiro[3.4]octan-7-yl)-3-(trifluoromethyl)picolinonitrile] | > 6.00 | No (Agonist defined as a compound whose Emax in the ARVP16 DNA Binding Assay (Agonist mode) is >20x DMSO control)
N#Cc1ncc(N2C(=O)C3(CCC3)N(c3ccc4ncoc4c3)C2=S)cc1C(F)(F)F [Compound 125, 5-(5-(Benzo[d]oxazol-6-yl)-8-oxo-6-thioxo-5,7-diazaspiro[3.4]octan-7-yl)-3-(trifluoromethyl)picolinonitrile] | > 6.00 | No (Agonist defined as a compound whose Emax in the ARVP16 DNA Binding Assay (Agonist mode) is >20x DMSO control)
CN1CCC(NC(=O)c2ccc(N3C(=S)N(c4cnc(C#N)c(C(F)(F)F)c4)C(=O)C34CCC4)cc2F)CC1 [Compound 276, 4-(7-(6-Cyano-5-(trifluoromethyl)pyridin-3-yl)-8-oxo-6-thioxo-5,7-diazaspiro[3.4]octan-5-yl)-2-fluoro-N-(1-methylpiperidin-4-yl)benzamide] | < 6.00 | No (Agonist defined as a compound whose Emax in the ARVP16 DNA Binding Assay (Agonist mode) is >20x DMSO control)
COc1cc(N2C(=O)C3(CCC3)N(c3ccc(C)cc3)C2=S)cnc1C#N [Compound 59, 3-Methoxy-5-(8-oxo-6-thioxo-5-(p-tolyl)-5,7-diazaspiro[3.4]octan-7-yl)picolinonitrile] | > 6.00 | No (Agonist defined as a compound whose Emax in the ARVP16 DNA Binding Assay (Agonist mode) is >20x DMSO control)
Cc1cc(N2C(=O)C3(CCC3)N(c3ccc(C(=O)NCc4cccs4)c(F)c3)C2=S)cnc1C#N [Compound 274, 4-(7-(6-Cyano-5-methylpyridin-3-yl)-8-oxo-6-thioxo-5,7-diazaspiro[3.4]octan-5-yl)-2-fluoro-N-(thiophen-2-ylmethyl)benzamide] | > 6.00 | No (Agonist defined as a compound whose Emax in the ARVP16 DNA Binding Assay (Agonist mode) is >20x DMSO control)
N#Cc1ccccc1N1C(=S)N(c2cnc(C#N)c(C(F)(F)F)c2)C(=O)C12CCC2 [Compound 10, 5-(5-(2-Cyanophenyl)-8-oxo-6-thioxo-5,7-diazaspiro[3.4]octan-7-yl)-3-(trifluoromethyl)picolinonitrile] | < 6.00 | No (Agonist defined as a compound whose Emax in the ARVP16 DNA Binding Assay (Agonist mode) is >20x DMSO control)
N#Cc1ncc(N2C(=O)C3(CCC3)N(c3ccc(C(=O)NCCCN4CCCC4=O)c(F)c3)C2=S)cc1C(F)(F)F [Compound 308, 4-(7-(6-Cyano-5-(trifluoromethyl)pyridin-3-yl)-8-oxo-6-thioxo-5,7-diazaspiro[3.4]octan-5-yl)-2-fluoro-N-(3-(2-oxopyrrolidin-1-yl)propyl)benzamide] | > 6.00 | No (Agonist defined as a compound whose Emax in the ARVP16 DNA Binding Assay (Agonist mode) is >20x DMSO control)
CN1CCN(CCCOc2ccc(N3C(=S)N(c4cnc(C#N)c(C(F)(F)F)c4)C(=O)C34CCC4)c(F)c2)CC1 [Compound 184, 5-(5-(2-Fluoro-4-(3-(4-methylpiperazin-1-yl)propoxy)phenyl)-8-oxo-6-thioxo-5,7-diazaspiro[3.4]octan-7-yl)-3-(trifluoromethyl)picolinonitrile] | > 6.00 | Yes (Agonist defined as a compound whose Emax in the ARVP16 DNA Binding Assay (Agonist mode) is >20x DMSO control)
Cc1ccc(N2C(=S)N(c3cnc(C#N)c(C)c3)C(=O)C23CCC3)cc1 [Compound 31, 3-Methyl-5-(8-oxo-6-thioxo-5-(p-tolyl)-5,7-diazpiro[3.4]octan-7-yl)picolinonitrile] | > 6.00 | No (Agonist defined as a compound whose Emax in the ARVP16 DNA Binding Assay (Agonist mode) is >20x DMSO control)
N#Cc1ncc(N2C(=O)C3(CCC3)N(c3ccc(C(=O)NCCc4ccccn4)c(F)c3)C2=S)cc1C(F)(F)F [Compound 236, 4-(7-(6-Cyano-5-(trifluoromethyl)pyridin-3-yl)-8-oxo-6-thioxo-5,7-diazaspiro[3.4]octan-5-yl)-2-fluoro-N-(2-(pyridin-2-yl)ethyl)benzamide] | > 6.00 | No (Agonist defined as a compound whose Emax in the ARVP16 DNA Binding Assay (Agonist mode) is >20x DMSO control)
N#Cc1ncc(N2C(=O)C3(CCC3)N(c3ccc(C(=O)NCc4ccncc4)c(F)c3)C2=S)cc1C(F)(F)F [Compound 259, 4-(7-(6-Cyano-5-(trifluoromethyl)pyridin-3-yl)-8-oxo-6-thioxo-5,7-diazaspiro[3.4]octan-5-yl)-2-fluoro-N-(pyridin-4-ylmethyl)benzamide] | > 6.00 | No (Agonist defined as a compound whose Emax in the ARVP16 DNA Binding Assay (Agonist mode) is >20x DMSO control)
CCOC(=O)COc1ccc(N2C(=S)N(c3cnc(C#N)c(C(F)(F)F)c3)C(=O)C23CCC3)cc1F [Compound 132, Ethyl 2-(4-(7-(6-cyano-5-(trifluoromethyl)pyridin-3-yl)-8-oxo-6-thioxo-5,7-diazaspiro[3.4]octan-5-yl)-2-fluorophenoxy)acetate] | < 6.00 | No (Agonist defined as a compound whose Emax in the ARVP16 DNA Binding Assay (Agonist mode) is >20x DMSO control)
